Legend:
[1] = short term (4 hour) toxicity exposure; assay type: in vivo; settings: 4 hour exposure
Source text: LC50 is a measure of the acute toxicity of a compound. The acute inhalation toxicity of a compound can be assessed using the method described in the OECD Guideline for Testing of Chemicals No. 403 “Acute Inhalation Toxicity” (2009), Method B.2. (Inhalation) of Commission Regulation (EC) No. 440/2008.

[2] = miscibility with mineral oil; assay type: physicochemical; settings: for Miscibility: with mineral oil, concentration up to which miscible
Source text: In addition, the compounds of the present invention have good miscibility with lubricants, including lubricants used in vapour compression refrigeration systems. For example, the Compounds 1 and 3 are fully miscible with e mineral oil at concentrations up to about 66.7 weight percent as indicated in the following table.

flash point (ASTM D3828) = assay type: physicochemical
Procedure: Flash Point refers the lowest temperature at which vapors of the liquid will […] as determined in accordance with ASTM D3828.
Non-flammable in the context of a thermal management composition or fluid means compounds or compositions which are determined to be non-flammable. The flash point of a thermal management composition or fluid refers the lowest temperature at which vapors of the composition will keep burning after the ignition source is removed as determined in accordance with ASTM D3828.

heat of vaporization = assay type: physicochemical
[3] = long term (28 day) toxicity exposure; assay type: in vivo; settings: 28 day exposure

Row | SMILES | Normal Boiling Point (normal boiling point) [°C] | Heat of Vaporization (heat of vaporization) [kcal/mol] | further results
1 | FC1(F)C(Cl)=C(Cl)C1(F)F [Compound 3, 1,2-dichloro-3,3,4,4-tetrafluorocyclobut-1-ene] | 58 |  | short term (4 hour) toxicity exposure [1]: failed; Miscibility [2]: Miscible up to 66.7%; Flash Point (flash point (ASTM D3828)): No flash point
2 | FC(F)(F)OC1=C(OC(F)(F)F)C(F)(F)C1(F)F [Compound 13] | 144 | 7.65 | 
3 | FC(F)(F)C(OC1=C(OC(C(F)(F)F)C(F)(F)F)C(F)(F)C1(F)F)C(F)(F)F [Compound 15, 3,3,4,4-pentafluoro-1,2-bis((1,1,1,3,3,3-hexafluoropropan-2-yl)oxy) cyclobut-1-ene] |  | 8.13 | 
4 | FC1=CCC1(F)F [Compound 2, 1,4,4-trifluorocyclobut-1-ene] | 32 |  | Miscibility with mineral oil ([2]; ratio compound to mineral oil): Not miscible; Flash Point (flash point (ASTM D3828)): Flash point observed
5 | FC1(F)C(Oc2ccccc2)=C(Oc2ccccc2)C1(F)F [Compound 17, ((perfluorocyclobut-1-ene-1,2-diyl)bis(oxy))dibenzene] |  | 17.9 | 
6 | FC1=C(Oc2ccccc2)C(F)(F)C1(F)F [Compound 16, ((perfluorocyclobut-1-en-1-yl)oxy)benzene] |  | 10 | 
7 | FC1=C(OC(C(F)(F)F)C(F)(F)F)C(F)(F)C1(F)F [Compound 14, 1,3,3,4,4-pentafluoro-2-((1,1,1,3,3,3-hexafluoropropan-2-yl)oxy)cyclobut-1-ene] |  | 7.41 | 
8 | FC(F)(F)COC1=C(Cl)C(F)(F)C1(F)F [Compound 18, 1-chloro-3,3,4,4-tetrafluoro-2-(2,2,2-trifluoroethoxy) cyclobut-1-ene] |  | 9.08 | 
9 | FC1=C(Cl)CC1(F)F [Compound 1, 1-chloro-2,3,3-trifluorocyclo-1-ene] | 52 |  | Miscibility [2]: Miscible up to 66.7%; Flash Point (flash point (ASTM D3828)): No flash point; long term (28 day) toxicity exposure [3]: failed
10 | COC1=C(Cl)C(F)(F)C1(F)F [Compound 4] | 110 |  | 
11 | COC1=C(OC)C(F)(F)C1(F)F [Compound 11, 3,3,4,4-tetrafluoro-1,2-dimethoxycyclobut-1-ene] | 127 |  | 

From US20240376363A1, “FLUORINE SUBSTITUTED CYCLOBUTENE COMPOUNDS, AND COMPOSITIONS, METHODS AND USES INCLUDING SAME” (HONEYWELL INTERNATIONAL INC., priority 2021, published 2024)
